Where two headings read alike, the source gives them in different places.
Legend:
[1] = cited from earlier work
Candida albicans = assay: Pharmacodynamic assay, immunodepleted mice infected with Candida albicans; assay type: in vivo; settings: for Number of animal death: mice (20 per group), tail vein, day 7
Source text: Method: Mice whose immunity was depleted by conventional method (white cell count≦100) were infected with Candida albicans, and randomly divided into eight groups, 20 per group. Mice received the treatment outlined in the following table by injection through the tail vein. […] Continuously monitoring animal survival for seven days, and counting the number of dead mice on day 7.

[2] = rat, cited from earlier work
[3] = mouse; Proffitt et al. 1991; cited from earlier work
[4] = Solubility assay of the polyconjugate; assay type: physicochemical; settings: water, room temperature (22˜25° C.), as active drug

Molecule	solubility in water [1]	Number of animal death (Candida albicans; 1 mg/kg as amphotericin B) [dead]	Number of animal death (Candida albicans; 2 mg/kg as amphotericin B) [dead]	50% effective dose (Candida albicans; mice infected with Candida albicans, survival at day 7, as amphotericin B)	LD50 ([2]; intravenous, Pfizer material safety data sheet) [mg/kg]	LD50 ([2]; Proffitt et al. 1991) [mg/kg]	LD50 [3] [mg/kg]	solubility (amount of the soluble active drug) [4] [%]	Number of animal death (Candida albicans; 0.25 mg/kg as amphotericin B) [dead]	Number of animal death (Candida albicans; 0.5 mg/kg as amphotericin B) [dead]
CC1O[C@@H](O[C@H]2/C=C/C=C/C=C/C=C/C=C/C=C/C=C/[C@H](C)[C@@H](O)[C@@H](C)[C@H](C)OC(=O)C[C@H](O)C[C@H](O)CC[C@@H](O)[C@H](O)C[C@H](O)C[C@]3(O)C[C@H](O)[C@@H](C(=O)O)[C@H](C2)O3)C(O)C(N)[C@@H]1O (stereo partly drawn) [amphotericin B]	insoluble	10	3	about 1 mg/kg	1.6	1.6	2.3			
amphotericin B-hydroxyethyl starch polyconjugate [Preparation 22]								0.026		
poly-aspartic acid-amphotericin B polyconjugate [Preparation 1]		0	0						5	0
